According to US5696155A, “Dibenz[b,e]oxepin derivatives and pharmaceutical agents which contain them” (Boehringer Mannheim BmbH, priority 1993, dated 1997):

Molecular target: T1, human recombinant type II PLA2 (=synovial PLA2) (Homo sapiens, UniProt P14555)
T1 sequence (P14555 21-144): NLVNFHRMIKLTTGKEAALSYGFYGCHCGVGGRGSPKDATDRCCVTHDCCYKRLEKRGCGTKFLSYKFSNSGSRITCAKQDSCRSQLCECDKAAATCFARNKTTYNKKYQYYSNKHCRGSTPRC
Assay: Inhibition of PLA2 activity (sPLA2 enzyme activity, in vitro)
Assay type: biochemical
Details: means of 3 experiments (duplicate determinations); for inhibition at 0.1 µg/mL: concentration 0.1 μg/ml; for inhibition at 1 µg/mL: concentration 1 μg/ml; for inhibition at 10 µg/mL: concentration 10 μg/ml
From the text: Inhibition of PLA2 activity
The human recombinant type II PLA2 (=synovial PLA2) as a typical representative of a PLA2 was used for the test.
This documents the superiority of the new sPLA2 inhibitors compared to a cyclooxygenase inhibitor.

inhibition at 0.1 µg/mL [%]	inhibition at 1 µg/mL [%]	inhibition at 10 µg/mL [%]	Compound
28	52	61	CCOC(=O)c1cc(=O)c2c3c(ccc2o1)C(=O)c1ccc(O)cc1CO3 [Ex.2a), 7,12-dihydro-10-hydroxy-1H-4,13-dioxabenzo[4,5]cyclohepta[1,2-a]-naphthalene-1,7-dione-3-carboxylic acid-ethyl ester]
12	73	78	CCOC(=O)c1cc(=O)c2cc3c(cc2o1)OCc1cc(O)ccc1C3=O [Ex.2c), 7,13-dihydro-2-hydroxy-5H-10,12-dioxabenzo[4,5]cyclohepta[1,2-b]-naphthalen-5,7-dione-9-carboxylic acid ethyl ester]
16	17	49	CCCCCCCCOc1ccc2c(c1)COc1c(cc3c(=O)cc(C(=O)OCC)oc3c1CCC)C2=O [Ex.4a), 7,13-dihydro-2-octyloxy-11-propyl-5H-10,12-dioxabenzo-[4,5]cyclo-hepta[1,2-b]naphthalen-5,7-dione-9-carboxylic acid ethyl ester]

Compound	inhibition at 0.1 µg/mL [%]	inhibition at 1 µg/mL [%]	inhibition at 10 µg/mL [%]
COc1ccc2c(c1)c(CC(=O)O)c(C)n2C(=O)c1ccc(Cl)cc1 [Indomethacin, reference compound]		0	
